Assay [1] has as its target T1, human Prostanoid EP4 Receptor (EP4) (Homo sapiens, UniProt P35408).
T1 construct: expressed in transfected cells; host or cells: HEK293 (G418 selection); membranes prepared by differential centrifugation
Description: Prostanoid EP4 binding assay (3H-prostaglandin E2 displacement, cell membranes). To be noted: HEK293 cell membranes with human EP4, 3H-prostaglandin E2, 24° C. How it is done:
HEK293 cells transfected with human Prostanoid EP4 Receptor (EP4) are maintained in DMEM supplemented with L-Glutamine, 10% FBS and 300 μg/ml G418. Cells are harvested and membranes prepared by differential centrifugation, following lysis of the cells in the presence of protease inhibitors, for use in the receptor binding assay. EP4 binding assay is performed in 50 mM HEPES pH7.4, 5 mM MgCl2, 1 mM CaCl2) and 0.2% BSA. Testing compounds are diluted with DMSO to make 8-point 4-fold serial dilution. Cell membrane homogenates are incubated at 24° C. with ^3H-prostaglandin E2 in the absence or presence of the testing compound in assay buffer. Nonspecific binding (Low control: LC) and total binding (High control: HC) are determined in the presence or absence of saturated cold ligand Prostaglandin E2 (PGE2). Specific binding is calculated by subtracting nonspecific binding from total binding. When binding assays are completed, the reaction mixture is filtered rapidly under vacuum through glass fiber filters (GF/C, Packard) presoaked with 0.5% BSA for at least 0.5 hour at room temperature and then washed for 4 times with cold wash buffer (50 mM HEPES pH7.4, 500 mM NaCl, 0.1% BSA) using a 96-sample Perkin Elmer Filtermate Harvester (Unifilter, Packard). The filters are dried for 1 hour at 50 degrees then counted for radioactivity in a scintillation counter using Perkin Elmer Microscint 20 cocktail. ^3H trapped on filter is counted using Perkin Elmer MicroBeta2 Reader. Inhibition is calculated using following equation: % Inhibition=(1−(Assay well−Average_LC)/(Average_HC−Average_LC))×100%. The results are expressed as a percent inhibition of the control radioligand specific binding. Data are analyzed and IC50 is calculated using GraphPad Prism 5 and the model “log(inhibitor) vs. response—Variable slope”. The binding affinity of the compounds is determined by using the Cheng and Prusoff equation Ki=IC50/(1+[radioligand]/Kd).

Assay [2] addresses T1, human Prostanoid EP4 Receptor (EP4). The assay is described as follows: Prostanoid EP4 FLIPR assay (calcium flux, PGE2 addition). The format is cell-based. As to conditions: HEK293 cells transfected with human EP4, Fluo-4 calcium dye. The method, then: (§1) HEK293 cells transfected with human Prostanoid EP4 Receptor (EP4) or CHO cells transfected with human Prostanoid EP2 Receptor (EP2) are maintained in DMEM supplemented with L-Glutamine, 10% FBS and 300 μg/ml G418. Cells are plated at 20,000 cells/well in black 384-well Poly-D-Lysine protein coating plate and incubated at 37° C., 5% CO2 for 24 h. Prior to the assay, calcium-sensitive dye Fluo-4 Direct™ (Molecular Devices) is reconstituted according to manufacturer instructions. The reconstituted dye was diluted in assay buffer (1× HBSS, 20 mM HEPES, and 2.5 mM Probenicid, pH 7.4). Growth media is removed and 20 μl of this diluted dye is added to each well at a final concentration of 2 μM. Plates are incubated for 50 min at 37° C. 5% C02 and 10 min at RT after dye addition. Testing compounds are diluted with DMSO to make 10-point 4-fold serial dilution. After the pre-treatment incubation, fluorescence intensity is measured on a FlexStation II fluorometric imaging plate reader (Molecular Devices). Relative fluorescence units (RFU) are measured before (20 readings) and after (40 readings) the PGE2 addition for a total 60 sec read time (Excitation=485 nm, Emission=525 nm). Data are analyzed and IC50 is calculated using GraphPad Prism 5 and the model “log(inhibitor) vs. response—Variable slope”.
(§2) Illustrative data for representative compounds are described in Table 2.
For orientation: Calcium assays in cells follow changes in intracellular calcium, usually with a dye or a luminescent sensor.

Assay [3] deals with T2, human Prostanoid EP2 Receptor (EP2) (Homo sapiens, UniProt P43116).
T2 construct: expressed in transfected cells; host or cells: CHO (G418 selection)
The assay is described as follows: Prostanoid EP2 FLIPR assay (calcium flux, PGE2 addition). As to conditions: CHO cells transfected with human EP2, Fluo-4 calcium dye. Format: cell-based. How it is done: as §1, §2

Each structure is given as a SMILES string. pIC50, pKi: −log10 of the molar value. Bounds are passed on as bounds.

T1 sequence (P35408 whole entry): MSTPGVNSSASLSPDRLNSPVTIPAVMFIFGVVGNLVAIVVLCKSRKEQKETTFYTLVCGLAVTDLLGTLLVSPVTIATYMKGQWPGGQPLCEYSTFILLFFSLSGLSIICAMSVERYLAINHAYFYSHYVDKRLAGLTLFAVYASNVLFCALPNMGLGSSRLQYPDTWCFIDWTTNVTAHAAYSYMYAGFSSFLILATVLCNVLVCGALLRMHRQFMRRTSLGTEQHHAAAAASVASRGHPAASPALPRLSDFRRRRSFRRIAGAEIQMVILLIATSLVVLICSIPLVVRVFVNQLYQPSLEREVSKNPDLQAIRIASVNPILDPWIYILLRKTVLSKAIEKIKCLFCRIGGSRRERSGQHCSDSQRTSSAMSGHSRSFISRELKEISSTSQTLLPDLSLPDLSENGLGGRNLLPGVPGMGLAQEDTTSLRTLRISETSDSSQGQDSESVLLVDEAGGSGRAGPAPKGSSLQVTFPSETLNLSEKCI
T2 sequence (P43116 whole entry): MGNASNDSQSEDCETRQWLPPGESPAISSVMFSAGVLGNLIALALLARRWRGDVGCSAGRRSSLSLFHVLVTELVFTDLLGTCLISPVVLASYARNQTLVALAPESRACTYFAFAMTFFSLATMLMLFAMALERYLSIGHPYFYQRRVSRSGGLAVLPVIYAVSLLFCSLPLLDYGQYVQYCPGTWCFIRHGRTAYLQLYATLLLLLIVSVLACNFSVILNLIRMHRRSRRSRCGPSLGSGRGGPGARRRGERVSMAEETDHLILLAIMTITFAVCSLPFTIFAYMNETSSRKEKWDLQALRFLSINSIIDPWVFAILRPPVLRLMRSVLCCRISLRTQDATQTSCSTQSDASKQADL

A word on the pKi: it is the Ki on a negative log10 scale, so that one unit is a factor of ten. A low value points to a large Ki. By pIC50 is commonly meant −log10 of the IC50, conventionally taken in molar units. Take `O=C(NC1CC2(C1)CC(C(=O)O)C2)c1cnn2cccc(Cc3cc4ccccc4cn3)c12` (single isomer, unassigned) [Compound 13A, cis-2-[[4-(3-isoquinolylmethyl)pyrazolo[1,5-a]pyridine-3-carbonyl]amino]spiro[3.3]heptane-6-carboxylic acid]: in assay [1], the pKi was < 6.30. In assay [2], the pIC50 is 6.30 to 7.00.

As for `O=C(N[C@H]1CC2(C1)C[C@H](C(=O)O)C2)c1cnn2cccc(Cc3ccc(C(F)(F)F)cc3)c12` (single isomer, unassigned) [Compound 14A, cis-6-[[4-[[4-(trifluoromethyl)phenyl]methyl]pyrazolo[1,5-a]pyridine-3-carbonyl]amino]spiro[3.3]heptane-2-carboxylic acid], the pKi in assay [1] is 6.30 to 7.00. The pIC50 in assay [2] is 6.30 to 7.00; in assay [3], < 6.00.

Take `O=C(N[C@H]1CC2(C1)C[C@H](C(=O)O)C2)c1cnn2cccc(Cc3ccc(C(F)(F)F)cc3)c12` (single isomer, unassigned) [Compound 14B, trans-2-[[4-[[4-(trifluoromethyl)phenyl]methyl]pyrazolo[1,5-a]pyridine-3-carbonyl]amino]spiro[3.3]heptane-6-carboxylic acid]: the pKi in assay [1] is > 7.00. The pIC50 is > 7.00 in assay [2] and < 6.00 in assay [3].

With `C[C@H](NC(=O)c1cnn2cccc(Cc3ccc(C(F)(F)F)cc3)c12)c1ccc(C(=O)O)cc1` [Compound 1, 4-[(1S)-1-[[4-[[4-(trifluoromethyl)phenyl]methyl]pyrazolo[1,5-a]pyridine-3-carbonyl]amino]ethyl]benzoic acid], the pKi in assay [1] was > 7.00. For the same compound, the figures for the pIC50 in assay [2] and in assay [3] were > 7.00 and < 6.00, respectively.

On to `O=C(NC1CC2(C1)CC(C(=O)O)C2)c1cnn2cccc(Cc3ccc(C(F)(F)F)cc3)c12` (centres unmarked) [Compound 2, 2-[[4-[[4-(trifluoromethyl)phenyl]methyl]pyrazolo[1,5-a]pyridine-3-carbonyl]amino]spiro[3.3]heptane-6-carboxylic acid], for which, in assay [1], the pKi was > 7.00. Besides, the pIC50 is > 7.00 in assay [2] and < 6.00 in assay [3].

Take `O=C(O)CC12CC(NC(=O)c3cnn4cccc(Cc5cccc(C(F)(F)F)c5)c34)(C1)C2` [Compound 16, 2-[3-[[4-[[3-(trifluoromethyl)phenyl]methyl]pyrazolo[1,5-a]pyridine-3-carbonyl]amino]-1-bicyclo[1.1.1]pentanyl]acetic acid]: the pKi in assay [1] is < 6.30. In addition, in assay [2], the negative-log IC50 (pIC50) was 6.30 to 7.00.

Take `O=C(O)CC12CC(NC(=O)c3n[nH]c4cccc(Cc5ccc(C(F)(F)F)cc5)c34)(C1)C2` [Compound 18, 2-(3-(4-(4-(trifluoromethyl)benzyl)-1H-indazole-3-carboxamido)bicyclo[1.1.1]pentan-1-yl)acetic acid]: the pKi in assay [1] is 6.30 to 7.00. The pIC50 in assay [2] is > 7.00.

Consider `CCn1cc(C(=O)NC2CC3(C2)CC(C(=O)O)C3)c2c(Cc3ccc(C(F)(F)F)cc3)ccnc21` (stereo not drawn) [Compound 45, trans-2-[[1-ethyl-4-[[4-(trifluoromethyl)phenyl]methyl]-pyrrolo[2,3-b]pyridine-3-carbonyl]amino]spiro[3.3]heptane-6-carboxylic acid], for which the pKi in assay [1] was > 7.00.

In the case of `CCn1cc(C(=O)N[C@@H](C)c2ccc(C(=O)O)cc2)c2c(Cc3ccc(C(F)(F)F)cc3)ccnc21` [Compound 46, 4-[(1S)-1-[[1-ethyl-4-[[4-(trifluoromethyl)phenyl]methyl]-pyrrolo[2,3-b]pyridine-3-carbonyl]amino]ethyl]benzoic acid], in assay [1], the pKi is > 7.00.

Consider `C[C@H](NC(=O)c1cn(CCF)c2nccc(Cc3ccc(C(F)(F)F)cc3)c12)c1ccc(C(=O)O)cc1` [Compound 47, 4-[(1S)-1-[[1-(2-fluoroethyl)-4-[[4-(trifluoromethyl)phenyl]methyl]pyrrolo[2,3-b]pyridine-3-carbonyl]amino]ethyl]benzoic acid], for which the pKi in assay [1] was > 7.00.

As to `O=C(NC1CC2(C1)CC(C(=O)O)C2)c1cn(CCF)c2nccc(Cc3ccc(C(F)(F)F)cc3)c12` (stereo not drawn) [Compound 48, trans-2-[[1-(2-fluoroethyl)-4-[[4-(trifluoromethyl)phenyl]methyl]-pyrrolo[2,3-b]pyridine-3-carbonyl]amino]spiro[3.3]heptane-6-carboxylic acid], in assay [1], the pKi is > 7.00.

As for `CC(C(=O)O)c1ccc(NC(=O)c2cnn3cccc(Cc4ccc(C(F)(F)F)cc4)c23)cc1` (centres unmarked) [Compound 49, 2-[4-[[4-[[4-(trifluoromethyl)phenyl]methyl]pyrazolo[1,5-a]pyridine-3-carbonyl]amino]phenyl]propanoic acid], in assay [1], the negative logarithm of the Ki (pKi) is 6.30 to 7.00.

For `O=C(NCC12CCC(C(=O)O)(CC1)C2)c1cnn2cccc(Cc3ccc(C(F)(F)F)cc3)c12` [Compound 50, 4-[[[4-[[4-(trifluoromethyl)phenyl]methyl]pyrazolo[1,5-a]pyridine-3-carbonyl]amino]methyl]norbornane-1-carboxylic acid], in assay [1], the pKi is < 6.30.

For the compound `CCn1cc(C(=O)NC23CC(CC(=O)O)(C2)C3)c2c(Cc3ccc(C(F)(F)F)cc3)cccc21` [Compound 51, 2-[3-[[1-ethyl-4-[[4-(trifluoromethyl)phenyl]methyl]indole-3-carbonyl]amino]-1-bicyclo[1.1.1]pentanyl]acetic acid], the pKi in assay [1] is > 7.00.

For `O=C(O)CC12CC(NC(=O)c3cn(CCF)c4cccc(Cc5ccc(C(F)(F)F)cc5)c34)(C1)C2` [Compound 52, 2-[3-[[1-(2-fluoroethyl)-4-[[4-(trifluoromethyl)phenyl]methyl]-indole-3-carbonyl]amino]-1-bicyclo[1.1.1.1]pentanyl]acetic acid], the pKi in assay [1] was > 7.00.

As to `CCn1cc(C(=O)NC23CC(CC(=O)O)(C2)C3)c2c(Cc3ccc(C(F)(F)F)cc3)ccnc21` [Compound 53], the pKi in assay [1] is > 7.00.

For `O=C(O)CC12CC(NC(=O)c3cn(CCF)c4nccc(Cc5ccc(C(F)(F)F)cc5)c34)(C1)C2` [Compound 54, 2-[3-[[1-(2-fluoroethyl)-4-[[4-(trifluoromethyl)phenyl]methyl]-pyrrolo[2,3-b]pyridine-3-carbonyl]amino]-1-bicyclo[1.1.1]pentanyl]acetic acid], the pKi in assay [1] is > 7.00.

Turning to `CCn1cc(C(=O)NC[C@H]2CC[C@H](C(=O)O)CC2)c2c(Cc3ccc(C(F)(F)F)cc3)cccc21` [Compound 55, (1r,4r)-4-[[[1-ethyl-4-[[4-(trifluoromethyl)phenyl]methyl]indole-3-carbonyl]amino]methyl]cyclohexanecarboxylic acid], the negative-log Ki (pKi) in assay [1] is > 7.00.

In the case of `CCn1cc(C(=O)N[C@H]2CC[C@H](CC(=O)O)CC2)c2c(Cc3ccc(C(F)(F)F)cc3)cccc21` [Compound 56, 2-[(1r,4r)-4-[[1-ethyl-4-[[4-(trifluoromethyl)phenyl]methyl]indole-3-carbonyl]amino]cyclohexyl]acetic acid], the pKi in assay [1] is > 7.00.

With `O=C(O)C[C@H]1CC[C@H](NC(=O)c2cn(CCF)c3nccc(Cc4ccc(C(F)(F)F)cc4)c23)CC1` [Compound 57, 2-[(1r,4r)-4-[[1-(2-fluoroethyl)-4-[[4-(trifluoromethyl)-phenyl]methyl]pyrrolo[2,3-b]pyridine-3-carbonyl]amino]cyclohexyl]acetic acid], the pKi in assay [1] was > 7.00.

For `O=C(NC[C@H]1CC[C@H](C(=O)O)CC1)c1cn(CCF)c2nccc(Cc3ccc(C(F)(F)F)cc3)c12` [Compound 58, (1r,4r)-4-[[[1-(2-fluoroethyl)-4-[[4-(trifluoromethyl)-phenyl]methyl]-pyrrolo[2,3-b]pyridine-3-carbonyl]amino]methyl]cyclohexanecarboxylic acid], in assay [1], the pKi was > 7.00.

These data come from US20220324803A1 (Teon Therapeutics, Inc., priority 2019, published 2022).
